The values below come from US8263590B2, “Pyrimidine derivatives” (priority 2003, dated 2012).

Like-named read-outs stand apart in the source and are kept apart here.

For assay [1], the system named is Mouse mammary carcinoma 4T1 cells. As to the kind of experiment: Anchorage-independent tumor cell growth assay. It is filed as cell-based. Here is the method:
Cells are cultured for 2 h and inhibitors are added at various concentrations in a final concentration of 0.1% DMSO. After 48 h, cell growth is assayed with the cell counting kit-8 (Wako Pure Chemical), which uses a water soluble tetrazolium salt WST8. Twenty μL of the reagent is added into each well and cells are further cultured for 2 h. The optical density is measured at 450 nm.

The next assay concerns the target human FAK kinase domain (Homo sapiens, UniProt Q05397). The assay can be described thus: FAK assay (FRET, Biot-Y397 peptide).
For a further assay, the target named is FAK (Tyr397) (Mus musculus, UniProt P34152). As to the kind of experiment: Phosphorylation levels of FAK at Tyr397 (sandwich ELISA, 4T1 cells).
FAK (Tyr397), sequence (P34152 whole entry): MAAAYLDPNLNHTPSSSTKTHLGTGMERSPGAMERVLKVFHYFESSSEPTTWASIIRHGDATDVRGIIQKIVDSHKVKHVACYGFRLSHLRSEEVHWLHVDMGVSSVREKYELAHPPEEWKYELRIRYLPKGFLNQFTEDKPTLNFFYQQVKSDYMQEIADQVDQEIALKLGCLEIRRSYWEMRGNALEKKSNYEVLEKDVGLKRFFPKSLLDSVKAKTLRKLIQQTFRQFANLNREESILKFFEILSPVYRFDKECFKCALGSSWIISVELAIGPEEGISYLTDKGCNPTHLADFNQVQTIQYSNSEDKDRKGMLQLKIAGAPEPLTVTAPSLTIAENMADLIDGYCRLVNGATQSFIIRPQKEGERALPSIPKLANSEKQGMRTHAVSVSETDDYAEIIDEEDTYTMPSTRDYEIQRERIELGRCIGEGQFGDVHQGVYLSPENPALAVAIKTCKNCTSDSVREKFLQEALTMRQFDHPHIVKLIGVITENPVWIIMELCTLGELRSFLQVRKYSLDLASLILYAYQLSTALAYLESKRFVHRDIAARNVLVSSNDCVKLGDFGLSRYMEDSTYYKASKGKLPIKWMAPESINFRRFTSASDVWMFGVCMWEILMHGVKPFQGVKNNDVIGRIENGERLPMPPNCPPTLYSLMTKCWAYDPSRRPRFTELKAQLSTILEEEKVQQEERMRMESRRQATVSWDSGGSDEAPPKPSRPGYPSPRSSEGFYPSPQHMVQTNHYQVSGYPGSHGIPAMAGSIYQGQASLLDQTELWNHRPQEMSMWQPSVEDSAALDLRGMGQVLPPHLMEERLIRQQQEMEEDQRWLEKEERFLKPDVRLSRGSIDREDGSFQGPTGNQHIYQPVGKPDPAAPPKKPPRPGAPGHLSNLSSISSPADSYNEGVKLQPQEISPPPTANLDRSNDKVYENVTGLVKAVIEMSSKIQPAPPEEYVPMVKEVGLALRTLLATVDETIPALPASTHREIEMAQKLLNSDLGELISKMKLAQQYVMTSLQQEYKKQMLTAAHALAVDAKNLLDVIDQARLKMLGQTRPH
The subject of assay [2] is Jurkat T human leukemic cell line. The assay can be described thus: In vitro T cell migration assay. It is filed as cell-based. Here is the method: Inhibitory activities of FAK inhibitors on the mobility of immune cells are secured by the following in vitro study. […] Cell mobility is appraised through the number of cells migrated into lower chamber by labeling with calcein-AM (Molecular Probes, Netherlands) at 8 μg/ml in HBSS for 1 h.

For a further assay, the target named is T1, human IGF-IR (Homo sapiens, UniProt P08069).
T1 construct: transfected with human IGF-IR cDNA (complete human IGF-IR cDNA); expressed in transfected cells; host or cells: NIH-3T3 mouse fibroblasts
T1 sequence (P08069 31-1367): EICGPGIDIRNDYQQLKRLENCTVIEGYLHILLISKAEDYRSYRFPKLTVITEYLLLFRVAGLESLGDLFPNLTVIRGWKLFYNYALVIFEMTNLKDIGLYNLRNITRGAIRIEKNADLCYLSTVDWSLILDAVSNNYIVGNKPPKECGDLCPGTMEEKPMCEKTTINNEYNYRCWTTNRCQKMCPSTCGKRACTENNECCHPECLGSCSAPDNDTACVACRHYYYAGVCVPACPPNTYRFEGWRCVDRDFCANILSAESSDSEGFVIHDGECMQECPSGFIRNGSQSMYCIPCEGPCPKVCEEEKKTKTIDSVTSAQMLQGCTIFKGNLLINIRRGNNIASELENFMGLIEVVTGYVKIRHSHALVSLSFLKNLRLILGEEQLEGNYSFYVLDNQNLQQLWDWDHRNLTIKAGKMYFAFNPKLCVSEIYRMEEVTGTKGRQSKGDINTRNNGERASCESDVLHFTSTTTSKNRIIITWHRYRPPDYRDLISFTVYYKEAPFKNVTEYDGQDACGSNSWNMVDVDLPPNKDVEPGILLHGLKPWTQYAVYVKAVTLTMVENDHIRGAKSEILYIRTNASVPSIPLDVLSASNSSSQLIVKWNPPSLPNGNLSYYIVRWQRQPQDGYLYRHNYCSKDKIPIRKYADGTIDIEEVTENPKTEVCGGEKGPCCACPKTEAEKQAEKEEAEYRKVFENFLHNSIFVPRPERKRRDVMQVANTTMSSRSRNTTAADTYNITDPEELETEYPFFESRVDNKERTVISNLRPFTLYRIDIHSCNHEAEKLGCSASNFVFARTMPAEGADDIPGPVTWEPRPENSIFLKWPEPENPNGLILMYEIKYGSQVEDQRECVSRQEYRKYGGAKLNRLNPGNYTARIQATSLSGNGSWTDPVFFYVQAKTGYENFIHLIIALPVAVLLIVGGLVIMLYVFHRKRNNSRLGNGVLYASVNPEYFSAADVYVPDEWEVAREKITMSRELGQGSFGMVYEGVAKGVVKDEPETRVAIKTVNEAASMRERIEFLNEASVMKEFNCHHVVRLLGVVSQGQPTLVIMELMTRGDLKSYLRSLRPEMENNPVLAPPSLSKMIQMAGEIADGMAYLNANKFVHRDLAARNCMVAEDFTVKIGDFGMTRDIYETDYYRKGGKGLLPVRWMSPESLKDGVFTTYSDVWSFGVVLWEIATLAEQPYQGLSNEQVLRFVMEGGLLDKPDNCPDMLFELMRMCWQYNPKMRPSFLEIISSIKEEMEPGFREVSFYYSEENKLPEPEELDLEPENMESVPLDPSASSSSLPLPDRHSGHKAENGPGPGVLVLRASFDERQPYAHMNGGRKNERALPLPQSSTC
The assay can be described thus: IGF-I induced IGF-IR autophosphorylation, cellular Capture ELISA. In kind it is cell-based. Conditions: read-out: IGF-1R IC50. Here is the method: In this assay the activity of the compounds of the invention against Insulin-like growth factor I (IGF-I) induced autophosphorylation of the IGF-IR is determined.
The cells which overexpress human IGF-IR are cultured in Dulbecco's minimal essential (DMEM) medium, containing 10% Fetal Calf Serum (FCS). […] On day 3 the medium is discarded and the cells are incubated for 24 h in minimal medium (DMEM, containing 0.5% FCS).
The medium is discarded and the cells are washed twice with PBS/O (=Phosphate-Buffered Saline without CaCl2) and lysed for 15 min on ice with 50 μl/well RIPA-buffer [50 mM Tris.HCl, pH=7.2, 120 mM NaCl, 1 mM EDTA, 6 mM EGTA, 1% NP-40, 20 mM NaF, 1 mM benzamidine, 15 mM sodium pyrophosphate, 1 mM Phenyl methyl sulphonyl fluoride (PMSF) and 0.5 mM Na3VO4] and shaken for 10 min using a 96-well plate shaker (=cellular extracts).
The plates are washed twice with 0.05% (v/v) Tween-20 in Phosphate-Buffered Saline (PBS) and once with nanopure H2O. […] After blocking, the plates are washed once with nanopure H2O.
After incubating the extracts and the secondary antibody for 2 h at 4° C., the extracts are discarded, the plates are washed twice with 0.05% (v/v) Tween-20 in PBS and once with nanopure water.
90 μl/well AP substrate (CDP-Star; obtained from Tropix; Cat. No.: MS100RY) are then added and the plates are incubated for 45 min at RT in the dark, followed by measuring AP activity in a Packard Top Count Microplate Scintillation Counter. The IC50 values for the compounds of formula I are calculated via linear regression analysis using the GraphPad Instat program (GraphPad Software, USA).

human FAK kinase domain, sequence (Q05397 384-706): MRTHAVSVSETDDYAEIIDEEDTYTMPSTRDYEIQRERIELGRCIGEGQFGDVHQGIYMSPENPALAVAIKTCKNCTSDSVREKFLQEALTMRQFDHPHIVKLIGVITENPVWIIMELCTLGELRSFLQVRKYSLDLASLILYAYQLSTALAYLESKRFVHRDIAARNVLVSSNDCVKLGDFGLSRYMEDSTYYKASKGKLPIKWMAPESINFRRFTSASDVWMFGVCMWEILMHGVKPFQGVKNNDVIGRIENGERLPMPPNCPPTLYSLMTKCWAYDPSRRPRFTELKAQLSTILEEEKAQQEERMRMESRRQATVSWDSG
Procedure for FAK (Tyr397): Phosphorylation levels of FAK at Tyr397 is quantified by the sandwich ELISA. Mouse mammary carcinoma 4T1 cells (1×10^5) are plated in wells of 96-well culture plates and incubated with or without various concentrations of inhibitors for 1 h in Dulbecco's modified eagle medium containing 0.5% BSA. The medium is removed and cells are lysed in 200 μL 50 mM Tris-HCl, pH 7.4, containing 1% NP-40, 0.25% sodium deoxycholate, 150 mM NaCl, 1 mM EDTA, 1 mM PMSF, 1 mM Na3VO4, 1 mM NaF, 1 μg/mL aprotinin, 1 μg/mL leupeptin and 1 μg/mL pepstatin. […] The concentration of compound causing 50% reduction of phosphorylation level of FAK is determined.
Procedure for human FAK kinase domain: All steps are performed in a 96-well black microtiter plate. […] The enzyme reaction is started by addition of 5 μL of 5 μM ATP in water and the mixture is incubated for 3 hours at 37° C. […] The results are shown as percent inhibition of enzyme activity. […] IC50 values are determined by non-linear curve fit analysis using the OriginPro 6.1 program (OriginLab).

Turning to `CNS(=O)(=O)c1ccccc1Nc1nc(Nc2cccc3c2CCCC3)ncc1Br` [Example 3-31], 5000 nM corresponded to half-maximal inhibition in assay [1] (IC50). On to `CNS(=O)(=O)c1ccccc1Nc1nc(Nc2ccc(OC3CCN(C)C3)cc2OC)ncc1Br` (centres unmarked) [Example 3-82], for which the concentration for half-maximal inhibition (IC50) at human FAK kinase domain was determined as 4.8 nM; on FAK (Tyr397) it was 200 nM; in assay [1] (Mus musculus, 4T1), 70 nM. In assay [1], `CNS(=O)(=O)c1ccccc1Nc1nc(Nc2ccc(-n3ccnc3C)cc2OC)ncc1Br` [Example 3-83] had a 50% inhibitory concentration (IC50) of 320 nM. In turn, `CNC(=O)c1ccccc1Nc1nc(Nc2cc(F)ccc2OC)ncc1Br` [Example 8-3] displayed an IC50 in assay [1] of 1000 nM. Regarding `CCNC(=O)c1ccccc1Nc1nc(Nc2ccc(N3CCC(N4CCCCC4)CC3)cc2OC)ncc1Cl` [Example 9-3], the IC50 against human FAK kinase domain came out at 18 nM; on FAK (Tyr397), 100 nM; in assay [1] (Mus musculus, 4T1), 370 nM. In the case of `CNC(=O)c1cc(N2CCCC2)ccc1Nc1nc(Nc2ccc(N3CCOCC3)cc2OC)ncc1Cl` [Example 15-3], the IC50 at human FAK kinase domain is 44 nM; on FAK (Tyr397), 2000 nM; in assay [1] (Mus musculus, 4T1), 1670 nM. As for `COc1cc(N2CCN(C)CC2)ccc1Nc1ncc(Cl)c(Nc2ccccc2S(=O)(=O)NC(C)C)n1` [Example 19-5], the IC50 was 70 nM in assay [2]; 470 nM at human IGF-IR; 670 nM in assay [1] (Mus musculus, 4T1). Consider `CNS(=O)(=O)c1ccccc1Nc1nc(Nc2ccc(N3CCC(N4CCCCC4)CC3)cc2OC)ncc1Cl` [Example 20-8], for which the IC50 in assay [2] was 290 nM; against human FAK kinase domain it was 6.8 nM; against FAK (Tyr397), 170 nM; in assay [1] (Mus musculus, 4T1), 50 nM.

Consider `CNS(=O)(=O)c1ccccc1Nc1nc(Nc2ccc(OC3CCN(C)C3)cc2OC)ncc1Cl` (centres unmarked) [Example 20-29], for which the IC50 turned out to be 6.1 nM on human FAK kinase domain; 310 nM on human IGF-IR; 200 nM at FAK (Tyr397); 50 nM in assay [1] (Mus musculus, 4T1). Consider `CCC(C)NS(=O)(=O)c1ccccc1Nc1nc(Nc2ccc(N3CCN(C)CC3)cc2OC)ncc1Cl` (centres unmarked) [Example 21-1], for which the IC50 at human IGF-IR is 470 nM; in assay [1] (Mus musculus, 4T1) it was 190 nM.

Consider `CCC(CC)NS(=O)(=O)c1ccccc1Nc1nc(Nc2ccc(OC3CCN(C)CC3)cc2OC)ncc1Cl` [Example 23-1], for which 630 nM corresponded to half-maximal inhibition in assay [2] (IC50). For the compound `CCC(CC)NS(=O)(=O)c1ccccc1Nc1nc(Nc2ccc(OC3CCN(C)C3)cc2OC)ncc1Cl` (centres unmarked) [Example 23-7], the IC50 at human FAK kinase domain was 2.1 nM; against FAK (Tyr397), 3000 nM; in assay [1] (Mus musculus, 4T1) it was 840 nM. `CCCS(=O)(=O)c1ccccc1Nc1nc(Nc2ccc(N3CCN(C(C)=O)CC3)cc2OC)ncc1Cl` [Example 26-2] registered an IC50 in assay [2] of 90 nM. Still for that read-out and setting: as for `CCCS(=O)(=O)c1ccccc1Nc1nc(Nc2ccc(N3CCC(O)CC3)cc2OC)ncc1Cl` [Example 26-4], the figure is 290 nM; as for `CCCS(=O)(=O)c1ccccc1Nc1nc(Nc2ccc(N3CCN(C(C)=O)C(C)(C)C3)cc2OC)ncc1Cl` [Example 26-11], 500 nM. On the same count and under the same terms, the same measure for `CCCS(=O)(=O)c1ccccc1Nc1nc(Nc2cc(N3CCOCC3)ccc2OC)ncc1Cl` [Example 26-17]: 260 nM. `CCCS(=O)(=O)c1ccccc1Nc1nc(Nc2ccc(C(=O)N3CCOCC3)cc2OC)ncc1Cl` [Example 26-20]: the IC50 is 10 nM at human FAK kinase domain, 490 nM at human IGF-IR and 140 nM against FAK (Tyr397).

`CCCS(=O)(=O)c1ccccc1Nc1nc(Nc2ccc(N3CCN(C(C)C)CC3)cc2OC)ncc1Cl` [Example 26-23]: in assay [1], half-maximal inhibition (IC50) required 90 nM. Same read-out and setting: the same measure for `Cc1cc(N2CCOCC2)ccc1Nc1ncc(Cl)c(Nc2ccccc2S(=O)(=O)C(C)C)n1` [Example 28-6]: 560 nM. Regarding `CCN1CCN(c2ccc(Nc3ncc(Cl)c(Nc4ccccc4S(=O)(=O)C(C)C)n3)c(OC)c2)CC1` [Example 28-12], in assay [1], half-maximal inhibition (IC50) required 430 nM. `COc1cc(N2CCC(N3CCOCC3)CC2)ccc1Nc1ncc(Cl)c(Nc2ccccc2S(=O)(=O)C(C)C)n1` [Example 28-13]: the IC50 in assay [2] turned out to be 290 nM. Same read-out and setting: as for `COc1cc(N2CCC(O)CC2)ccc1Nc1ncc(Cl)c(Nc2ccccc2S(=O)(=O)C(C)C)n1` [Example 28-16], the figure is 600 nM. In the case of `COc1cc(OC2CCN(C)CC2)ccc1Nc1ncc(Cl)c(Nc2ccccc2S(=O)(=O)C(C)C)n1` [Example 28-19], the IC50 stood at 3.7 nM against human FAK kinase domain; 500 nM on FAK (Tyr397); 140 nM in assay [1] (Mus musculus, 4T1).

As for `COc1cc(N2CCC[C@H](C(N)=O)C2)ccc1Nc1ncc(Cl)c(Nc2ccccc2S(=O)(=O)C(C)C)n1` [Example 28-27], the IC50 in assay [2] was found to be 500 nM.

For `COc1cc(N2CCC[C@@H](C(N)=O)C2)ccc1Nc1ncc(Cl)c(Nc2ccccc2S(=O)(=O)C(C)C)n1` [Example 28-28], the IC50 in assay [2] was determined as 1000 nM. In the case of `CC(C)S(=O)(=O)c1ccccc1Nc1nc(Nc2cccc3c2OCC3)ncc1Cl` [Example 28-31], the midpoint of inhibition in assay [1], the IC50, lay at 1060 nM.
